Two compounds from patent US8557741B2, “3-aminocarbonyl-substituted benzoylcyclohexanediones and their use as herbicides” (Bayer CropScience AG, priority 2010, dated 2013) can be followed below.

Common to all, as to format: in vivo
The test system of one test is Abutilon theophrasti. As to the kind of experiment: Pre-emergence herbicidal action against harmful plants. To be noted: Abutilon theophrasti, 504 h, dosage 320 g/ha, visual assessment after 3 weeks (Table A), read-out: Herbicidal action against ABUTH. A digest of the protocol:
(§1)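 Soil-surface application over covered seeds (sandy loam), WP or EC in water, 600 to 800 l/ha, 0.2% wetting agent; greenhouse; % activity scored visually at 3 weeks, 100% = dead.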

The subject of another test is Alopecurus myosuroides. The description is as above. The conditions noted are these: dosage 320 g/ha, visual assessment after 3 weeks (Table A). A digest of the protocol: as §1
For test [1], the system named is Amaranthus retroflexus. The description is as above. To be noted: 504 h, dosage 320 g/ha, visual assessment after 3 weeks (Table A), read-out: Herbicidal action against AMARE. In outline:
as §1

The test system of test [2] is Avena fatua. The description is as above. To be noted: dosage 320 g/ha, visual assessment after 3 weeks (Table A). In outline: as §1
Test [3] concerns Echinochloa crus galli. The description is as above. The conditions noted are these: Echinochloa, 504 h, dosage 320 g/ha, visual assessment after 3 weeks (Table A), read-out: Herbicidal action against ECHCG. In outline: as §1
Test [4] relates to Matricaria inodora. Described as above. The conditions noted are these: Tripleurospermum inodorum, 504 h, dosage 320 g/ha, visual assessment after 3 weeks (Table A), read-out: Herbicidal action against MATIN. A digest of the protocol:
as §1

Test [5] relates to Phartoitis purpureum. Described as above. To be noted: dosage 320 g/ha, visual assessment after 3 weeks (Table A). A digest of the protocol: as §1
For test [6], the system named is Stellaria media. The description is as above. The conditions noted are these: 504 h, dosage 320 g/ha, visual assessment after 3 weeks (Table A), read-out: Herbicidal action against STEME. A digest of the protocol: as §1
The subject of test [7] is Veronica persica. The description is as above. To be noted: 504 h, dosage 320 g/ha, visual assessment after 3 weeks (Table A), read-out: Herbicidal action against VERPE. A digest of the protocol:
as §1

Test [8] has as its system Amaranthus retroflexus. Briefly: Post-emergence herbicidal action against harmful plants. To be noted: 504 h, dosage 80 g/ha, visual rating after about 3 weeks (Table D), read-out: Herbicidal action against AMARE. A digest of the protocol:
(§2)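 Percent activity, judged by eye about 3 weeks after spraying, compared treated plants with untreated controls. Plants at the one-leaf stage received a foliar spray at 600 to 800 l/ha.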

The test system of test [9] is Avena fatua. The test is described as above. To be noted: dosage 80 g/ha, visual rating after about 3 weeks (Table D). In outline: as §2
Test [10] concerns Echinochloa crus galli. The description is as above. The conditions noted are these: 504 h, dosage 80 g/ha, visual rating after about 3 weeks (Table D), read-out: Herbicidal action against ECHCG. A digest of the protocol: as §2
The next test concerns Fallopia convolvulus. Described as above. The conditions noted are these: 504 h, dosage 80 g/ha, visual rating after about 3 weeks (Table D), read-out: Herbicidal action against POLCO. In outline: as §2
For test [11], the system named is Matricaria inodora. The description is as above. To be noted: Tripleurospermum inodorum, 504 h, dosage 80 g/ha, visual rating after about 3 weeks (Table D), read-out: Herbicidal action against MATIN. A digest of the protocol:
as §2

Test [12] concerns Phartoitis purpureum. The description is as above. The conditions noted are these: 504 h, dosage 80 g/ha, visual rating after about 3 weeks (Table D), read-out: Herbicidal action against PHBPU. In outline:
as §2

Test [13] concerns Stellaria media. Described as above. To be noted: 504 h, dosage 80 g/ha, visual rating after about 3 weeks (Table D), read-out: Herbicidal action against STEME. In outline: as §2
Test [14] deals with Veronica persica. The test is described as above. The conditions noted are these: 504 h, dosage 80 g/ha, visual rating after about 3 weeks (Table D), read-out: Herbicidal action against VERPE. A digest of the protocol:
as §2

As to `CN(C)C(=O)COc1c(Cl)ccc(C(=O)C2=C(O)CCCC2=O)c1C(F)(F)F` [Compound E1], the pest or weed control at 320 g/ha was 100% in the test on Abutilon theophrasti; 100% in the test on Amaranthus retroflexus [1]; 100% with Echinochloa crus galli [3]; 100% in the test with Matricaria inodora [4]; 90% in the test on Stellaria media [6]; 100% in the test with Veronica persica [7]. Further, the “Herbicidal action against ALOMY” value with Alopecurus myosuroides is reported as 100%. Further, the results for the “Herbicidal action against AVEFA” value with Avena fatua [2] and with Avena fatua [9] were 90% and 80%, respectively. In the test with Phartoitis purpureum [5], the “Herbicidal action against PHBPU” value was 80%. Moreover, the pest or weed control at 80 g/ha in the test with Amaranthus retroflexus [8] was 80%; in the test with Echinochloa crus galli [10] it was 90%; in the test on Fallopia convolvulus, 100%; in the test on Matricaria inodora [11], 100%; in the test with Phartoitis purpureum [12], 90%; with Stellaria media [13], 90%. Besides, the pest or weed control at 80 g/ha with Veronica persica [14] is 90%.
As for `CN(C)C(=O)COc1c(Cl)ccc(C(=O)C2=C(O)CCCC2=O)c1Cl` [Compound S1, reference compound], the pest or weed control at 320 g/ha was determined as 90% with Abutilon theophrasti; 60% in the test on Amaranthus retroflexus [1]; 30% in the test with Echinochloa crus galli [3]; 100% in the test with Matricaria inodora [4]; 80% in the test with Stellaria media [6]; 70% with Veronica persica [7]. The “Herbicidal action against ALOMY” value with Alopecurus myosuroides was found to be 40%. For the same compound, the “Herbicidal action against AVEFA” value in the test on Avena fatua [2] was 20%; with Avena fatua [9], 50%. The “Herbicidal action against PHBPU” value with Phartoitis purpureum [5] is listed as 40%. In addition, the pest or weed control at 80 g/ha was 80% in the test with Amaranthus retroflexus [8]; 50% with Echinochloa crus galli [10]; 60% in the test on Fallopia convolvulus; 100% with Matricaria inodora [11]; 70% in the test with Phartoitis purpureum [12]; 70% with Stellaria media [13]. Besides, the pest or weed control at 80 g/ha with Veronica persica [14] was 70%.
